Results published in US8895504B2, “Amylin derivatives” (priority 2008, dated 2014).
*1 amine or outer side, *2 acyl side, *3 side chain or, on linkers, in order; H or OH if unused. Where a SMILES comes first, the peptide text is derived from it. Bridges are numbered along the chain shown (N, C = ends). The star is where a group is joined. C20 diacid = O=C(O)CCCCCCCCCCCCCCCCCCC(=O)*; γGlu = O=C(O)[C@H](CCC(=O)[*:2])N[*:1]; Trx = NC[C@H]1CC[C@H](C(=O)O)CC1; AEEA = NCCOCCOCC(=O)O; GABA = NCCCC(=O)O

biological target: T1, Amylin 3(a) receptor (human calcitonin receptor (CTa) and RAMP-3) (Homo sapiens, UniProt O60896+P30988); experiment: Luciferase assay (III), BHK Amylin 3(a)//CRE-luc cells; type: cell-based; settings: BHK cells with Amylin 3(a) receptor and CRE luciferase reporter, 4 hours incubation; read-out: Potency Luciferase
T1 construct: expressed in transfected cells; host or cells: BHK570 cells, stably transfected with a CRE-luciferase reporter
Outline: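 BHK570 cells stably expressing CTa, RAMP-3 and a CRE-luciferase reporter, seeded at about 20,000 cells/well and grown overnight. Cells were exposed to standard or sample for 4 h at 37° C in phenol red-free DMEM with 10% FBS and 10 mM Hepes, pH 7,4. Luminescence was read after 30 min LucLite at room temperature.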

T1 sequence (O60896 24-148): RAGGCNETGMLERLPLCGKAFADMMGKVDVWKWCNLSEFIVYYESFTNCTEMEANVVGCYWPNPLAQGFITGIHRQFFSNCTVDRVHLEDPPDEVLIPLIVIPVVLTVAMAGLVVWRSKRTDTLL
T1 sequence (P30988 25-474): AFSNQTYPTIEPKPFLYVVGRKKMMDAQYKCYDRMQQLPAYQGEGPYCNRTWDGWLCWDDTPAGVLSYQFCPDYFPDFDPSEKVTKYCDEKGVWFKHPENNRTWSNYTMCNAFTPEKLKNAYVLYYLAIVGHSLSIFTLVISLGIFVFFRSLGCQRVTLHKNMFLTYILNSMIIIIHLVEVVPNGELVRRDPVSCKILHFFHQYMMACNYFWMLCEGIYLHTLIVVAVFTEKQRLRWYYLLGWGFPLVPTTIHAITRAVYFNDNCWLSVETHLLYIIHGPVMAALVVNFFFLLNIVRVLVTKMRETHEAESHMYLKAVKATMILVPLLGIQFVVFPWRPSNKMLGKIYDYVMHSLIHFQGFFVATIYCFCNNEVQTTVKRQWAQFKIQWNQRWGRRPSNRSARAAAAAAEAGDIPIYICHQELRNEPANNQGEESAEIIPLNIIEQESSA

In order of rising EC50:
1. CC[C@H](C)[C@H](NC(=O)[C@@H]1CCCN1C(=O)CNC(=O)[C@H](Cc1ccccc1)NC(=O)[C@H](CC(N)=O)NC(=O)[C@H](CC(N)=O)NC(=O)[C@H](CO)NC(=O)[C@H](CO)NC(=O)[C@H](Cc1c[nH]cn1)NC(=O)[C@H](Cc1c[nH]cn1)NC(=O)[C@H](CC(C)C)NC(=O)[C@H](Cc1ccccc1)NC(=O)[C@H](CC(N)=O)NC(=O)[C@H](C)NC(=O)[C@H](CC(C)C)NC(=O)[C@H](CCCNC(=N)N)NC(=O)[C@H](CCC(N)=O)NC(=O)[C@@H](NC(=O)[C@H](C)NC(=O)[C@@H]1CSSC[C@H](NC(=O)CCCNC(=O)CCCCCCCCCCCCCCCCCCC(=O)O)C(=O)N[C@@H](CC(N)=O)C(=O)N[C@@H]([C@@H](C)O)C(=O)N[C@@H](C)C(=O)N[C@@H]([C@@H](C)O)C(=O)N1)[C@@H](C)O)C(=O)N[C@@H](CC(C)C)C(=O)N1CCC[C@H]1C(=O)N1CCC[C@H]1C(=O)N[C@H](C(=O)N[C@@H](CC(N)=O)C(=O)N[C@H](C(=O)NCC(=O)N[C@@H](CO)C(=O)N[C@@H](CC(N)=O)C(=O)N[C@H](C(=O)N[C@@H](Cc1ccc(O)cc1)C(N)=O)[C@@H](C)O)C(C)C)[C@@H](C)O [Example 30, N-alpha-[4-(19-Carboxynonadecanoylamino)butyryl]-[His17]-pramlintide (2-37)] ({C20 diacid-GABA}-CNTATCATQRLANFLHHSSNNFGPILPPTNVGSNTY-NH2; disulfide 1-6)  60 pM
2. CC[C@H](C)[C@H](NC(=O)[C@@H]1CCCN1C(=O)CNC(=O)[C@H](Cc1ccccc1)NC(=O)[C@H](CC(N)=O)NC(=O)[C@H](CC(N)=O)NC(=O)[C@H](CO)NC(=O)[C@H](CO)NC(=O)[C@H](Cc1c[nH]cn1)NC(=O)[C@H](Cc1c[nH]cn1)NC(=O)[C@H](CC(C)C)NC(=O)[C@H](Cc1ccccc1)NC(=O)[C@H](CC(N)=O)NC(=O)[C@H](C)NC(=O)[C@H](CC(C)C)NC(=O)[C@H](CCCNC(=N)N)NC(=O)[C@H](CCC(N)=O)NC(=O)[C@@H](NC(=O)[C@H](C)NC(=O)[C@@H]1CSSC[C@H](NC(=O)[C@H](CCCNC(=N)N)NC(=O)[C@H](Cc2c[nH]cn2)NC(=O)[C@H](CCCNC(=N)N)NC(=O)[C@H](CCC(=O)O)NC(=O)CC[C@H](NC(=O)CCCCCCCCCCCCCCCCCCC(=O)O)C(=O)O)C(=O)N[C@@H](CC(N)=O)C(=O)N[C@@H]([C@@H](C)O)C(=O)N[C@@H](C)C(=O)N[C@@H]([C@@H](C)O)C(=O)N1)[C@@H](C)O)C(=O)N[C@@H](CC(C)C)C(=O)N1CCC[C@H]1C(=O)N1CCC[C@H]1C(=O)N[C@H](C(=O)N[C@@H](CC(N)=O)C(=O)N[C@H](C(=O)NCC(=O)N[C@@H](CO)C(=O)N[C@@H](CC(N)=O)C(=O)N[C@H](C(=O)N[C@@H](Cc1ccc(O)cc1)C(N)=O)[C@@H](C)O)C(C)C)[C@@H](C)O [Example 69, N-alpha-[(S)-4-Carboxy-4-(19-carboxynonadecanoylamino)butyryl]-Glu-Arg-His-[Arg1,His17]-pramlintide] ({C20 diacid-γGlu}-ERHRCNTATCATQRLANFLHHSSNNFGPILPPTNVGSNTY-NH2; disulfide 5-10)  100 pM
3. CC[C@H](C)[C@H](NC(=O)[C@@H]1CCCN1C(=O)CNC(=O)[C@H](Cc1ccccc1)NC(=O)[C@H](CC(N)=O)NC(=O)[C@H](CC(N)=O)NC(=O)[C@H](CO)NC(=O)[C@H](CO)NC(=O)[C@H](Cc1c[nH]cn1)NC(=O)[C@H](CO)NC(=O)[C@H](CC(C)C)NC(=O)[C@H](Cc1ccccc1)NC(=O)[C@H](CC(N)=O)NC(=O)[C@H](C)NC(=O)[C@H](CC(C)C)NC(=O)[C@H](CCCNC(=N)N)NC(=O)[C@H](CCC(N)=O)NC(=O)[C@@H](NC(=O)[C@H](C)NC(=O)[C@@H]1CSSC[C@H](NC(=O)CC[C@H](NC(=O)CCCCCCCCCCCCCCCCCCC(=O)O)C(=O)O)C(=O)N[C@@H](CC(N)=O)C(=O)N[C@@H]([C@@H](C)O)C(=O)N[C@@H](C)C(=O)N[C@@H]([C@@H](C)O)C(=O)N1)[C@@H](C)O)C(=O)N[C@@H](CC(C)C)C(=O)N1CCC[C@H]1C(=O)N1CCC[C@H]1C(=O)N[C@H](C(=O)N[C@@H](CC(N)=O)C(=O)N[C@H](C(=O)NCC(=O)N[C@@H](CO)C(=O)N[C@@H](CC(N)=O)C(=O)N[C@H](C(=O)N[C@@H](Cc1ccc(O)cc1)C(N)=O)[C@@H](C)O)C(C)C)[C@@H](C)O [Example 11, N-alpha-[(S)-4-Carboxy-4-(19-carboxynonadecanoylamino)butyryl]-[Ser17]-pramlintide (2-37)] ({C20 diacid-γGlu}-CNTATCATQRLANFLSHSSNNFGPILPPTNVGSNTY-NH2; disulfide 1-6)  100 pM
4. CC[C@H](C)[C@H](NC(=O)[C@@H]1CCCN1C(=O)CNC(=O)[C@H](Cc1ccccc1)NC(=O)[C@H](CC(N)=O)NC(=O)[C@H](CC(N)=O)NC(=O)[C@H](CO)NC(=O)[C@H](CO)NC(=O)[C@H](Cc1c[nH]cn1)NC(=O)[C@H](Cc1c[nH]cn1)NC(=O)[C@H](CC(C)C)NC(=O)[C@H](Cc1ccccc1)NC(=O)[C@H](CC(N)=O)NC(=O)[C@H](C)NC(=O)[C@H](CC(C)C)NC(=O)[C@H](CCCNC(=N)N)NC(=O)[C@H](CCC(N)=O)NC(=O)[C@@H](NC(=O)[C@H](C)NC(=O)[C@@H]1CSSC[C@H](NC(=O)[C@H](Cc2c[nH]cn2)NC(=O)[C@H](CCCNC(=N)N)NC(=O)[C@H](Cc2c[nH]cn2)NC(=O)[C@H](CCC(=O)O)NC(=O)CC[C@H](NC(=O)CCCCCCCCCCCCCCCCCCC(=O)O)C(=O)O)C(=O)N[C@@H](CC(N)=O)C(=O)N[C@@H]([C@@H](C)O)C(=O)N[C@@H](C)C(=O)N[C@@H]([C@@H](C)O)C(=O)N1)[C@@H](C)O)C(=O)N[C@@H](CC(C)C)C(=O)N1CCC[C@H]1C(=O)N1CCC[C@H]1C(=O)N[C@H](C(=O)N[C@@H](CC(N)=O)C(=O)N[C@H](C(=O)NCC(=O)N[C@@H](CO)C(=O)N[C@@H](CC(N)=O)C(=O)N[C@H](C(=O)N[C@@H](Cc1ccc(O)cc1)C(N)=O)[C@@H](C)O)C(C)C)[C@@H](C)O [Example 66, N-alpha-[(S)-4-Carboxy-4-(19-carboxynonadecanoylamino)butyryl]-Glu-His-Arg-[His1,His17]-pramlintide] ({C20 diacid-γGlu}-EHRHCNTATCATQRLANFLHHSSNNFGPILPPTNVGSNTY-NH2; disulfide 5-10)  100 pM
5. CC[C@H](C)[C@H](NC(=O)[C@@H]1CCCN1C(=O)CNC(=O)[C@H](Cc1ccccc1)NC(=O)[C@H](CC(N)=O)NC(=O)[C@H](CC(N)=O)NC(=O)[C@H](CO)NC(=O)[C@H](CO)NC(=O)[C@H](Cc1c[nH]cn1)NC(=O)[C@H](CCCNC(=N)N)NC(=O)[C@H](CC(C)C)NC(=O)[C@H](Cc1ccccc1)NC(=O)[C@H](CC(N)=O)NC(=O)[C@H](C)NC(=O)[C@H](CC(C)C)NC(=O)[C@H](CCCNC(=N)N)NC(=O)[C@H](CCC(N)=O)NC(=O)[C@@H](NC(=O)[C@H](C)NC(=O)[C@@H]1CSSC[C@H](NC(=O)[C@H](CCCNC(=N)N)NC(=O)[C@H](Cc2c[nH]cn2)NC(=O)[C@H](Cc2c[nH]cn2)NC(=O)COCCOCCNC(=O)CC[C@H](NC(=O)CCCCCCCCCCCCCCCCCCC(=O)O)C(=O)O)C(=O)N[C@@H](CC(N)=O)C(=O)N[C@@H]([C@@H](C)O)C(=O)N[C@@H](C)C(=O)N[C@@H]([C@@H](C)O)C(=O)N1)[C@@H](C)O)C(=O)N[C@@H](CC(C)C)C(=O)N1CCC[C@H]1C(=O)N1CCC[C@H]1C(=O)N[C@H](C(=O)N[C@@H](CC(N)=O)C(=O)N[C@H](C(=O)NCC(=O)N[C@@H](CO)C(=O)N[C@@H](CC(N)=O)C(=O)N[C@H](C(=O)N[C@@H](Cc1ccc(O)cc1)C(N)=O)[C@@H](C)O)C(C)C)[C@@H](C)O [Example 57, N-alpha-[2-(2-{2-[4-(S)-Carboxy-4-(19-carboxynonadecanoylamino)butyrylamino]ethoxy}ethoxy)acetyl]-His-His-[Arg1,Arg17]-pramlintide] ({C20 diacid-γGlu-AEEA}-HHRCNTATCATQRLANFLRHSSNNFGPILPPTNVGSNTY-NH2; disulfide 4-9)  300 pM

same assay, conditions: Potency Luciferase, BHK cells with Amylin 3(a) receptor and CRE luciferase reporter, 4 hours incubation

With CC[C@H](C)[C@H](NC(=O)[C@@H]1CCCN1C(=O)CNC(=O)[C@H](Cc1ccccc1)NC(=O)[C@H](CC(N)=O)NC(=O)[C@H](CC(N)=O)NC(=O)[C@H](CO)NC(=O)[C@H](CO)NC(=O)[C@H](Cc1c[nH]cn1)NC(=O)[C@H](Cc1c[nH]cn1)NC(=O)[C@H](CC(C)C)NC(=O)[C@H](Cc1ccccc1)NC(=O)[C@H](CC(N)=O)NC(=O)[C@H](C)NC(=O)[C@H](CC(C)C)NC(=O)[C@H](CCCNC(=N)N)NC(=O)[C@H](CCC(N)=O)NC(=O)[C@@H](NC(=O)[C@H](C)NC(=O)[C@@H]1CSSC[C@H](NC(=O)[C@H](Cc2c[nH]cn2)NC(=O)CC[C@H](NC(=O)[C@H]2CC[C@H](CNC(=O)CCCCCCCCCCCCCCCCCCC(=O)O)CC2)C(=O)O)C(=O)N[C@@H](CC(N)=O)C(=O)N[C@@H]([C@@H](C)O)C(=O)N[C@@H](C)C(=O)N[C@@H]([C@@H](C)O)C(=O)N1)[C@@H](C)O)C(=O)N[C@@H](CC(C)C)C(=O)N1CCC[C@H]1C(=O)N1CCC[C@H]1C(=O)N[C@H](C(=O)N[C@@H](CC(N)=O)C(=O)N[C@H](C(=O)NCC(=O)N[C@@H](CO)C(=O)N[C@@H](CC(N)=O)C(=O)N[C@H](C(=O)N[C@@H](Cc1ccc(O)cc1)C(N)=O)[C@@H](C)O)C(C)C)[C@@H](C)O [Example 33, N-alpha-[4-Carboxy-4-({4-[(19-carboxynonadecanoylamino)methyl]transcyclohexanecarbonyl}amino)butyryl]-[His1,His17]-pramlintide] ({C20 diacid-Trx-γGlu}-HCNTATCATQRLANFLHHSSNNFGPILPPTNVGSNTY-NH2; disulfide 2-7; C-terminus assumed) the EC50 was 100 pM.
